Converted amounts (≈) assume the structure as drawn.
How the values were obtained:
Candida albicans [1] = experiment: Antifungal activity against Candida albicans CPCC400616 measured after 24 hrs by broth microdilution assay; type: functional
Candida albicans [2] = experiment: Antifungal activity against Candida albicans ATCC SC5314 measured after 24 hrs by broth microdilution assay; type: functional
[Candida] zeylanoides = Antifungal activity against Candida zeylanoides CMGCC2.3739 measured after 24 hrs by broth microdilution assay; type: functional; conditions: Dujonia zeylanoides
Cryptococcus neoformans = experiment: Antifungal activity against Cryptococcus neoformans CMGCC2.3161 measured after 72 hrs by broth microdilution assay; type: functional
Pichia kudriavzevii = experiment: Antifungal activity against Candida krusei AS2.1045 measured after 24 hrs by broth microdilution assay; type: functional
Nakaseomyces glabratus = experiment: Antifungal activity against Candida glabrata measured after 24 hrs by broth microdilution assay; type: functional
Candida parapsilosis = experiment: Antifungal activity against Candida parapsilosis ATCC 22019 measured after 24 hrs by broth microdilution assay; type: functional; conditions: Lodderomyces parapsilosis
Aspergillus fumigatus = experiment: Antifungal activity against Aspergillus fumigatus CMGCC3.7795 measured after 72 hrs by broth microdilution assay; type: functional
Candida albicans [3] = experiment: Antifungal activity against fluconazole-resistant Candida albicans CaR assessed as inhibition of microbial growth after 24 hrs by broth microdilution method; type: functional
Candida albicans [4] = experiment: Antifungal activity against fluconazole-resistant Candida albicans 17# assessed as inhibition of microbial growth after 24 hrs by broth microdilution method; type: functional
Candida albicans [5] = experiment: Antifungal activity against fluconazole-resistant Candida albicans 632 assessed as inhibition of microbial growth after 24 hrs by broth microdilution method; type: functional
Candida albicans [6] = experiment: Antifungal activity against fluconazole-resistant Candida albicans 901 assessed as inhibition of microbial growth after 24 hrs by broth microdilution method; type: functional
Candida albicans [7] = experiment: Antifungal activity against fluconazole-resistant Candida albicans 904 assessed as inhibition of microbial growth after 24 hrs by broth microdilution method; type: functional
HL-60 = experiment: Cytotoxicity against human HL-60 cells assessed as reduction in cell viability incubated for 96 hrs by MTT assay; type: cell-based; conditions: HL-60, 96 h
MDA-MB-231 = experiment: Cytotoxicity against human MDA-MB-231 cells assessed as reduction in cell viability incubated for 96 hrs by MTT assay; conditions: MDA-MB-231, 96 h
PC-3 = experiment: Cytotoxicity against human PC3 cells assessed as reduction in cell viability incubated for 96 hrs by MTT assay; type: cell-based; conditions: PC-3, 96 h, read-out: IC50
MCF-10A = experiment: Cytotoxicity against human MCF-10A cells assessed as reduction in cell viability incubated for 96 hrs by MTT assay; type: cell-based; conditions: read-out: IC50
[8] = Hemolytic activity in rabbit RBC assessed as hemolysis ratio at 1 ug/ml measured after 3 hrs by microplate reader assay relative to control; type: ADME, cell-based, Oryctolagus cuniculus, Erythrocyte; conditions: rabbit red blood cells (erythrocytes), at 1 µg/mL, read-out: Activity
[9] = Hemolytic activity in rabbit RBC assessed as hemolysis ratio at 2 ug/ml measured after 3 hrs by microplate reader assay relative to control; type: ADME, cell-based, Oryctolagus cuniculus, Erythrocyte; conditions: rabbit red blood cells (erythrocytes), at 2 µg/mL, read-out: Activity
[10] = Hemolytic activity in rabbit RBC assessed as hemolysis ratio at 4 ug/ml measured after 3 hrs by microplate reader assay relative to control; type: ADME, cell-based, Oryctolagus cuniculus, Erythrocyte; conditions: rabbit red blood cells (erythrocytes), at 4 µg/mL, read-out: Activity
[11] = Hemolytic activity in rabbit RBC assessed as hemolysis ratio at 8 ug/ml measured after 3 hrs by microplate reader assay relative to control; type: ADME, cell-based, Oryctolagus cuniculus, Erythrocyte; conditions: rabbit red blood cells (erythrocytes), at 8 µg/mL, read-out: Activity
[12] = Hemolytic activity in rabbit RBC assessed as hemolysis ratio at 16 ug/ml measured after 3 hrs by microplate reader assay relative to control; type: ADME, cell-based, Oryctolagus cuniculus, Erythrocyte; conditions: rabbit red blood cells (erythrocytes), at 16 µg/mL, read-out: Activity
[13] = Metabolic stability in mouse liver microsomes assessed as half life; type: ADME, Microsome
[14] = Metabolic stability in mouse liver microsomes assessed as clearance; type: ADME, Microsome; conditions: read-out: CLH
Erythrocyte = experiment: Hemolytic activity in rabbit RBC measured after 3 hrs by microplate reader assay; type: ADME, cell-based, Oryctolagus cuniculus
Candida albicans [15] = experiment: Potency index, ratio of fluconazole MIC to test compound MIC for Candida albicans CPCC400616 measured after 24 hrs by broth microdilution assay; type: functional
Candida albicans [16] = experiment: Potency index, ratio of miconazole MIC to test compound MIC for Candida albicans CPCC400616 measured after 24 hrs by broth microdilution assay; type: functional
Candida albicans [17] = experiment: Anti-biofilm activity in Candida albicans CPCC400616 assessed as inhibition of biofilm formation incubated for 24 hrs with 1.5 hrs precultured fungal suspension by XTT assay; type: functional
Candida albicans [18] = experiment: Anti-biofilm activity in Candida albicans CPCC400616 assessed as inhibition of biofilm formation incubated for 24 hrs with 3 hrs precultured fungal suspension by XTT assay; type: functional
Candida albicans [19] = experiment: Anti-biofilm activity in Candida albicans CPCC400616 assessed as inhibition of biofilm formation incubated for 24 hrs with 6 hrs precultured fungal suspension by XTT assay; type: functional
Candida albicans [20] = experiment: Anti-biofilm activity in Candida albicans CPCC400616 assessed as inhibition of biofilm formation incubated for 24 hrs with 24 hrs precultured fungal suspension by XTT assay; type: functional

Row | SMILES | MIC (Candida albicans [1]) [µg/mL] | MIC (Candida albicans [2]) [µg/mL] | MIC ([Candida] zeylanoides) [µg/mL] | MIC (Cryptococcus neoformans) [µg/mL] | MIC (Pichia kudriavzevii) [µg/mL] | MIC (Nakaseomyces glabratus) [µg/mL] | MIC (Candida parapsilosis) [µg/mL] | MIC (Aspergillus fumigatus) [µg/mL] | MIC (Candida albicans [3]) [µg/mL] | MIC (Candida albicans [4]) [µg/mL] | MIC (Candida albicans [5]) [µg/mL] | MIC (Candida albicans [6]) [µg/mL] | MIC (Candida albicans [7]) [µg/mL] | IC50 (HL-60) [µM] | IC50 (MDA-MB-231) [µM] | IC50 (PC-3) [µM] | IC50 (MCF-10A) [µM] | hemolysis at 3 h, 1 ug/ml [8] [%] | hemolysis at 3 h, 2 ug/ml [9] [%] | hemolysis at 3 h, 4 ug/ml [10] [%] | also measured
1 | Clc1ccc(C(Cn2ccnc2)[Se]Cc2ccccc2Cl)c(Cl)c1 (stereo not drawn) | 0.02 (≈ 0.045 µM) | 0.01 (≈ 0.0225 µM) | 1 (≈ 2.25 µM) | 0.25 (≈ 0.562 µM) | 0.13 (≈ 0.292 µM) | 0.5 (≈ 1.12 µM) | 0.13 (≈ 0.292 µM) | 2 (≈ 4.5 µM) | 0.06 | 0.13 | 1 | 0.5 | 0.25 | 1.02 | 9.06 | 13.1 | 30.2 | 0 | 3.15 | 58.9 | hemolysis at 3 h, 8 ug/ml [11]: 93.2%; hemolysis at 3 h, 16 ug/ml [12]: 98.2%; half-life [13]: 4.2 min; CLint scaled [14]: 1310 mL/min/kg; MHC (Erythrocyte): 4 µg/mL
2 | Cc1cccc(C)c1[Se]C(Cn1ccnc1)c1ccc(F)cc1F (stereo not drawn) | 0.03 (≈ 0.0767 µM) | 0.02 (≈ 0.0511 µM) | 0.13 (≈ 0.332 µM) | 0.25 (≈ 0.639 µM) | 0.02 (≈ 0.0511 µM) | 0.5 (≈ 1.28 µM) | 0.06 (≈ 0.153 µM) | 8 (≈ 20.4 µM) | 8 | 0.25 | 1 | 2 | 2 | – | – | – | – | – | – | – | Ratio (Candida albicans [15]): 8; Ratio (Candida albicans [16]): 8
3 | Fc1cccc([Se]C(Cn2ccnc2)c2ccc(Cl)cc2Cl)c1 (stereo not drawn) | 0.25 (≈ 0.604 µM) | 0.06 (≈ 0.145 µM) | 0.25 (≈ 0.604 µM) | 0.13 (≈ 0.314 µM) | 0.13 (≈ 0.314 µM) | 1 (≈ 2.41 µM) | 0.25 (≈ 0.604 µM) | 4 (≈ 9.66 µM) | 2 | 1 | 0.5 | 1 | 1 | 8.26 | 13.4 | 20.4 | 28.6 | 0 | 0 | 87.7 | hemolysis at 3 h, 8 ug/ml [11]: 94.6%; hemolysis at 3 h, 16 ug/ml [12]: 100%; half-life [13]: 10.3 min; CLint scaled [14]: 531 mL/min/kg; MIC50 (Candida albicans [17]): 4 µg/mL (≈ 9.66 µM); MIC80 (Candida albicans [17]): 16 µg/mL (≈ 38.6 µM); MIC50 (Candida albicans [18]): 8 µg/mL (≈ 19.3 µM); MIC80 (Candida albicans [18]): 128 µg/mL (≈ 309 µM); MIC50 (Candida albicans [19]): 128 µg/mL (≈ 309 µM); MIC80 (Candida albicans [19]): > 128 µg/mL; MIC50 (Candida albicans [20]): > 128 µg/mL; MIC80 (Candida albicans [20]): > 128 µg/mL; Ratio (Candida albicans [15]): 8

From ChEMBL document CHEMBL4813985, “Lead optimization generates selenium-containing miconazole CYP51 inhibitors with improved pharmacological profile for the treatment of fungal infections” (Eur J Med Chem, 2021)
